How the values were obtained:
[1] = system: Leishmania donovani; experiment: Antileishmanial activity against Leishmania donovani amastigotes infected in J774.A1 macrophage assessed as inhibition of parasite growth by luciferase assay; type: functional, organism-based
[2] = Selectivity index, ratio of CC50 for cytotoxicity against African green monkey Vero cells to IC50 for antileishmanial activity against Leishmania donovani amastigotes infected in J774.A1 macrophage; type: toxicity, cell-based; conditions: read-out: Ratio CC50/IC50
[3] = Cytotoxicity against mouse J774A.1 cells assessed as reduction in cell viability by MTT assay; type: toxicity, cell-based, J774.A1
[4] = Selectivity index, ratio of CC50 for cytotoxicity against mouse J774.A1 cells to IC50 for antileishmanial activity against Leishmania donovani amastigotes infected in J774.A1 macrophage; type: toxicity, cell-based; conditions: read-out: Ratio CC50/IC50
[5] = Cytotoxicity against African green monkey Vero cells assessed as reduction in cell viability by MTT assay; type: toxicity, cell-based; conditions: chlorocebus sabaeus
[6] = system: Leishmania donovani; experiment: Antileishmanial activity against Leishmania donovani amastigotes infected in golden hamster model assessed as inhibition of splenic parasite burden at 50 mg/kg,ip for 5 consecutive days measured after 7 days of post treatment; type: functional; conditions: for inhibition in vivo at 50 mg/kg: 168 h, time 7 day
[7] = system: Leishmania donovani; experiment: Antileishmanial activity against Leishmania donovani amastigotes infected in golden hamster model assessed as inhibition of splenic parasite burden at 50 mg/kg,ip for 5 consecutive days measured after 28 days of post treatment; type: functional; conditions: for inhibition in vivo at 50 mg/kg: 672 h, time 28 day
[8] = Leishmania donovani, J774.A1, read-out: IC50

| Compound | IC50 [1] | selectivity ratio [2] | CC50 [3] [µM] | IC50 [1, 8] [µM] | selectivity ratio [4] | CC50 [5] [µM] | inhibition in vivo at 50 mg/kg [6] [%] | inhibition in vivo at 50 mg/kg [7] [%] | inhibition ([6]; time 7.0 day) [%] | inhibition ([7]; time 28.0 day) [%] |
| --- | --- | --- | --- | --- | --- | --- | --- | --- | --- | --- |
| O=C(Nc1ccc([N+](=O)[O-])cc1Cl)c1ccccc1 | Not Active | – | – | – | – | – | – | – | – | – |
| O=C(Nc1ccc(Br)cc1)c1cc(Cl)ccc1O | – | 2.64 | 50.8 | 3.83 | 13.3 | 10.1 | – | – | – | – |
| O=C(Nc1ccc(F)c(F)c1)c1ccccc1O | – | 6.17 | 43.9 | 7.36 | 5.96 | 45.4 | – | – | – | – |
| CCCCCCCCCCCCCCCCOP(=O)([O-])OCC[N+](C)(C)C [MILTEFOSINE] | – | 5.6 | 53.3 | 9.25 | 5.76 | 51.8 | – | – | – | – |
| O=C(Nc1ccc([N+](=O)[O-])cc1Cl)c1cccc(Cl)c1 | Not Active | – | – | – | – | – | – | – | – | – |
| O=C(Nc1ccccc1)c1ccccc1O [SALICYLANILIDE] | Not Active | – | – | – | – | – | – | – | – | – |
| O=C(Nc1ccc(Br)c(C(F)(F)F)c1)c1cc(Cl)ccc1O | – | 0.72 | 46.6 | 3.5 | 13.3 | 2.54 | – | – | – | – |
| O=C(Nc1ccc(F)cc1[N+](=O)[O-])c1ccccc1O | – | 8.73 | 41.1 | 7.47 | 5.5 | 65.2 | – | – | – | – |
| O=C(Nc1ccc([N+](=O)[O-])cc1Cl)c1cc(Cl)ccc1O [NICLOSAMIDE] | – | 0.61 | 42.1 | 3.68 | 11.4 | 3.06 | – | – | – | – |
| O=C(Nc1ccc([N+](=O)[O-])cc1Cl)c1ccccc1O | – | 2.23 | 42.1 | 3.27 | 12.9 | 7.29 | – | – | – | – |
| O=C(Nc1ccccc1F)c1cc(Cl)ccc1O | – | 3.06 | 44 | 3.95 | 11.1 | 12.1 | – | – | – | – |
| O=C(Nc1ccccc1F)c1ccccc1O | Not Active | – | – | – | – | – | – | – | – | – |
| O=C(Nc1ccc(Cl)c(C(F)(F)F)c1)c1cc(Cl)ccc1O | – | 1.08 | 52.4 | 4 | 13.1 | 4.31 | – | – | – | – |
| O=C(Nc1ccc(F)cc1)c1ccccc1O | Not Active | – | – | – | – | – | – | – | – | – |
| O=C(Nc1cc(Cl)cc(Cl)c1)c1ccccc1O | – | 0.89 | 42.2 | 7.97 | 5.3 | 7.09 | – | – | – | – |
| O=C(Nc1ccccc1)c1cc(Cl)ccc1O | Not Active | – | – | – | – | – | – | – | – | – |
| O=C(Nc1ccccc1)c1ccccc1 [N-PHENYLBENZAMIDE] | Not Active | – | – | – | – | – | – | – | – | – |

| Compound | IC50 [1] | selectivity ratio [2] | CC50 [3] [µM] | IC50 [1, 8] [µM] | selectivity ratio [4] | CC50 [5] [µM] | inhibition in vivo at 50 mg/kg [6] [%] | inhibition in vivo at 50 mg/kg [7] [%] | inhibition ([6]; time 7.0 day) [%] | inhibition ([7]; time 28.0 day) [%] |
| --- | --- | --- | --- | --- | --- | --- | --- | --- | --- | --- |
| O=C(Nc1ccc(F)cc1[N+](=O)[O-])c1cc(Cl)ccc1O | – | 5.65 | 49.6 | 3.88 | 12.8 | 21.9 | – | – | – | – |
| O=C(Nc1ccc(F)c(Cl)c1)c1cc(Cl)ccc1O | – | 5.02 | 52.4 | 2.89 | 18.1 | 14.5 | 25.1 | 16.5 | – | – |
| O=C(Nc1ccc(F)c(Cl)c1)c1ccccc1O | Not Active | – | – | – | – | – | – | – | – | – |
| O=C(Nc1ccc(Cl)c(C(F)(F)F)c1)c1ccccc1O | Not Active | – | – | – | – | – | – | – | – | – |
| O=C(Nc1ccccc1Cl)c1cc(Cl)ccc1O | – | 5.02 | 46.5 | 2.62 | 17.7 | 13.2 | – | – | – | – |
| O=C(Nc1ccccc1)c1cccc(Cl)c1 | Not Active | – | – | – | – | – | – | – | – | – |
| O=C(Nc1cccc(Cl)c1)c1cc(Cl)ccc1O | – | 3 | 50.5 | 4.62 | 10.9 | 13.9 | – | – | – | – |
| O=C(Nc1ccc(F)c(F)c1)c1cc(Cl)ccc1O | – | 2.99 | 51.2 | 3.54 | 14.5 | 10.6 | – | – | – | – |
| Sodium stibogluconate | – | – | – | – | – | – | – | – | 81.4 | 85.4 |
| O=C(Nc1ccc(F)cc1)c1cc(Cl)ccc1O | Not Active | – | – | – | – | – | – | – | – | – |
| O=C(Nc1ccc(Cl)cc1)c1cc(Cl)ccc1O | – | 7.8 | 39 | 2.09 | 18.7 | 16.3 | 63.1 | 65.2 | – | – |
| O=C(Nc1ccc([N+](=O)[O-])cc1F)c1ccccc1O | – | 2.89 | 42.8 | 4.06 | 10.5 | 11.7 | – | – | – | – |
| O=C(Nc1cccc(C(F)(F)F)c1)c1cc(Cl)ccc1O | – | – | – | 3.47 | – | 3.17 | – | – | – | – |
| O=C(Nc1cc(Cl)cc(Cl)c1)c1cc(Cl)ccc1O | – | 1.69 | 38.8 | 3.83 | 10.1 | 6.49 | – | – | – | – |
| O=C(Nc1ccc([N+](=O)[O-])cc1F)c1cc(Cl)ccc1O | – | 0.81 | 43.1 | 3.98 | 10.8 | 3.23 | – | – | – | – |
| O=C(Nc1ccc(Br)c(C(F)(F)F)c1)c1ccccc1O | – | 1.13 | 44.2 | 3.82 | 11.6 | 4.33 | – | – | – | – |
| O=C(Nc1cc(Cl)cc(Cl)c1O)c1c(O)c(Cl)cc(Cl)c1Cl [OXYCLOZANIDE] | – | 31.2 | 42.4 | 7.71 | 5.49 | 156 | – | – | – | – |

— ChEMBL document CHEMBL5331088, “Design and synthesis of novel halogen rich salicylanilides as potential antileishmanial agents” (Eur J Med Chem, 2023)
